Laboratory results taken from patent US5691335A, “Imidazolidine derivative and use thereof” (Suntory Limited, priority 1994, dated 1997).
Where two headings read alike, the source gives them in different places.

What was measured:
cathepsin G = target: T1, cathepsin G (Homo sapiens, UniProt P08311); experiment: Inhibitory activity against cathepsin G (Ang I to Ang II conversion, HPLC); type: biochemical
T1 construct: cathepsin G (product of Calbiochem Co.) derived from human neutrophil; purchased Calbiochem Co; host or cells: human neutrophil
T1 sequence (P08311 21-244 limits assumed): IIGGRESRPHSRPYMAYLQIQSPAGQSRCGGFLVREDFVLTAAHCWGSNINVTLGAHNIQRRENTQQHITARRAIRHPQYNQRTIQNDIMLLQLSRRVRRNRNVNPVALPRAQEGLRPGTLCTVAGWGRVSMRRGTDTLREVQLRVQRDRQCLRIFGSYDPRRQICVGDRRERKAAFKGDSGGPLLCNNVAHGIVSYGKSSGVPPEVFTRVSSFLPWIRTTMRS
Procedure: (§1) After completion of the reaction, each liquid reaction mixture was subjected to high performance liquid chromatography on Develosil ODS-5 (product of Nomura Kagaku, 4.6 mm across×150 mm long) to develop it at a linear concentration gradient that the concentration of acetonitrile in 0.05% trifluoroacetic acid (hereinafter abbreviated as "TFA") is increased from 0% to 60% in 10 minutes at a flow rate of 2.0 ml/min. Monitoring was performed by the absorbance measurements at 210 nm. Peaks were identified by comparison with standard solutions of Ang I and Ang II. The areas of the peaks were determined by an integrator to quantitate Ang I and Ang II, thereby calculating chymase activity. The inhibitory activity against chymase was determined by calculating an inhibition rate, median inhibitory concentration (IC50) on the basis of the value in the blank test.
To a 20 mM Tris-hydrochloric acid buffer (pH 7.5) containing 2M KCl, were added 20 μl of a solution with cathepsin G (product of Calbiochem Co.) derived from human neutrophil dissolved at a concentration of 2 μg/ml in the same buffer, and 5 μl of a DMSO solution of a sample to be tested, and the resultant mixture was preincubated at 37° C. for 10 minutes and then added with 25 μl of a 1 mM solution of Ang I, followed by incubation at 37° C. for 30 minutes. Then, 50 μl of 30% acetic acid were added to stop the enzyme reaction. On the other hand, 5 μl of DMSO were added in place of the solution of the test sample to similarly conduct a reaction as a blank test. […] The inhibitory activity against cathepsin G was determined by calculating an inhibition rate, median inhibitory concentration (IC50) on the basis of the value in the blank test.

[1] = target: T2, bovine pancreas α-chymotrypsin (Bos taurus, UniProt P00766); experiment: Inhibitory activity against chymotrypsin (Ang I conversion, HPLC); type: biochemical
T2 construct: bovine pancreas α-chymotrypsin (product of Sigma Chemical Co., TypeII); purchased Sigma Chemical Co. TypeII; host or cells: bovine pancreas
Procedure: as §1
To 12 μl of a 20 mM Tris-hydrochloric acid buffer (pH 7.5) containing 2M KCl, were added 8 μl of a solution with bovine pancreas α-chymotrypsin (product of Sigma Chemical Co., TypeII) dissolved at a concentration of 8 μg/ml in a 20 mM aqueous solution of CaCl2 containing 1 mM HCl, and 5 μl of a DMSO solution of a sample to be tested, and the resultant mixture was preincubated at 37° C. for 10 minutes and then added with 25 μl of a 1 mM solution of Ang I, followed by incubation at 37° C. for 15 minutes. Then, 50 μl of 30% acetic acid were added to stop the enzyme reaction. On the other hand, 5 μl of DMSO were added in place of the solution of the test sample to similarly conduct a reaction as a blank test. After completion of the reaction, each liquid reaction mixture was treated by high performance liquid chromatography in the same manner as in Test Example 1 to quantitate Ang I and Ang II, thereby calculating chymotripsin activity. The inhibitory activity against chymotrypsin was determined by calculating an inhibition rate, median inhibitory concentration (IC50) on the basis of the value in the blank test.

Human cardiac chymase = target: T3, Human cardiac chymase (Homo sapiens, UniProt P23946); experiment: Inhibitory activity against chymase (Ang I to Ang II conversion, HPLC); type: biochemical
T3 construct: Human cardiac chymase was purified according to the process of Urata et al; from tissue; host or cells: human heart (cardiac)
T3 sequence (P23946 22-247): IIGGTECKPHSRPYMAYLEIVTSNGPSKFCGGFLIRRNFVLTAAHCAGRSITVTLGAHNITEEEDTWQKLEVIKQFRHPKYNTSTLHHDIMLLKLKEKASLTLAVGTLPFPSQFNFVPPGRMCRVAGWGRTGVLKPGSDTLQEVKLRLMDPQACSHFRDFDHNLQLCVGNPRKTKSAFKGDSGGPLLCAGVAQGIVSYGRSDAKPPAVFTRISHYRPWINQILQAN
Procedure: Human cardiac chymase was purified according to the process of Urata et al. (see the literature described above), and the inhibitory activities of the hydantoin compounds according to the present invention against the chymase were determined in the following manner. Namely, 10 μl of the purified chymase and 5 μl of a solution of a sample to be tested in dimethyl sulfoxide (hereinafter abbreviated as "DMSO") were added to 10 μl of a 20 mM Tris-hydrochloric acid buffer (pH 7.5) containing 2M KCl, and the resultant mixture was preincubated at 37° C. for 10 minutes and then added with 25 μl of a 1 mM solution of Ang I, followed by incubation at 37° C. for 30 minutes. Then, 50 μl of 30% acetic acid were added to stop the enzyme reaction. On the other hand, 5 μl of DMSO were added in place of the solution of the test sample to similarly conduct a reaction as a blank test.
as §1

in vivo = details: mouse, po
[2] = tested on: vascular restenosis after the operation of PTCA; details: random multifacility clinical study, Circulation 1992; cited from earlier work
chymase = details: literature, Okunishi et al.; cited from earlier work
[3] = cited from earlier work
[4] = human neutrophil cathepsin G, 37° C., pH 7.5, Ang I substrate, read-out: Inhibitory activities against enzymes (IC50), Cathepsin
[5] = bovine pancreas, 37° C., pH 7.5, Ang I substrate, read-out: Inhibitory activities against enzymes (IC50), Chymotrypsin
[6] = 37° C., pH 7.5, Ang I substrate, read-out: Inhibitory activities against enzymes (IC50), Chymase

| IC50 (cathepsin G; [4]) | IC50 [1, 5] | IC50 (Human cardiac chymase; [6]) | SMILES | further results |
| --- | --- | --- | --- | --- |
| 4.5 µM | 3.5 µM | 0.45 µM | C=CCOC(=O)Cc1cccc(S(=O)(=O)N2C(=O)CN(c3ccccc3)C2=O)c1 [Compound 45, 3-(3-allyloxycarbonylmethylbenzenesulfonyl)-1-phenyl-imidazolidin-2,4-dione] | – |
| 0.52 µM | 2.4 µM | 0.047 µM | O=C1CN(c2ccc(Cl)c(Cl)c2)C(=O)N1S(=O)(=O)c1ccc2ccccc2c1 [Compound 75, 1-(3,4-dichlorophenyl)-3-(2-naphthylsulfonyl)imidazolidin-2,4-dione] | – |
| 3.3 µM | 1.4 µM | – | O=C1CN(c2ccccc2)C(=O)N1S(=O)(=O)c1cccc(Oc2ccccc2)c1 [Compound 25, 3-(3-phenoxybenzenesulfonyl)-1-phenyl-imidazolidin-2,4-dione] | – |
| – | – | – | Cc1ccccc1S(=O)(=O)N1C(=O)CN(c2ccccc2)C1=O [Compound 2, 1-phenyl-3-(2-toluenesulfonyl)-imidazolidin-2,4-dione] | LD50 at 24 h (in vivo): ≥ 1000 mg/kg; selectivity ratio at 24 h (in vivo): ≥ 50 |
| 1.7 µM | – | 0.06 µM | Cc1ccc(N2CC(=O)N(S(=O)(=O)c3ccc(C)c(C)c3)C2=O)cc1C [Compound 60] | inhibition at 100 µM [1]: 33.6% |
| – | – | – | CCOC(=O)[C@H](CCc1ccccc1)N[C@H]1CCCN2CCC[C@@H](C(=O)O)N2C1=O [cilazapril] | prophylactic effect on vascular restenosis after PTCA versus placebo [2]: no statistically significant difference |
| 1.8 µM | 1.6 µM | 0.55 µM | O=C1CN(c2ccccc2)C(=O)N1S(=O)(=O)c1cccc2ccccc12 [Compound 70, 3-(1-naphthysulfonyl)-1-(phenyl)-imidazolidin-2,4-dione] | – |
| 3.2 µM | 6.9 µM | 14 µM | O=C1CN(c2ccccc2)C(=O)N1C(=O)c1ccc(-c2ccccc2)cc1 [Compound 15, 3-(4-phenylbenzoyl)-1-phenyl-imidazolidin-2,4-dione] | – |
| 8 µM | 3.7 µM | – | COc1cccc(S(=O)(=O)N2C(=O)CN(c3ccccc3)C2=O)c1 [Compound 20, 1-phenyl-3-(3-methoxybenzenesulfonyl)-imidazolidin-2,4-dione] | – |
| – | – | – | CN1CCN(C(=O)Cc2ccc(S(=O)(=O)N3C(=O)CN(c4ccccc4)C3=O)cc2)CC1 [Compound 50, 3-(4-N-methylpiperazylcarbonyl-methylbenzenesulfonyl)-1-phenyl-imidazolidin-2,4-dione] | IC50 (cathepsin G): 11 µM; IC50 [1]: 5.2 µM; IC50 (Human cardiac chymase): 0.85 µM |
| 7 µM | 34 µM | 10 µM | O=C(O)COc1ccc(S(=O)(=O)N2C(=O)CN(c3ccccc3)C2=O)cc1 [Compound 40, 3-(4-carboxymethyloxybenzenesulfonyl)-1-phenyl-imidazolidin-2,4-dione] | – |
| 19 µM | 90 µM | 0.17 µM | O=C1CN(c2cnc3ccccc3c2)C(=O)N1S(=O)(=O)c1ccc(Cl)cc1 [Compound 80, 3-(4-chlorobenzenesulfonyl)-1-(3-quinolyl)-imidazolidin-2,4-dione] | – |
| – | 1.8 µM | – | COC(=O)c1cccc(S(=O)(=O)N2C(=O)CN(c3ccccc3)C2=O)c1 [Compound 35, 3-(3-methoxycarbonylbenzenesulfonyl)1-phenyl-imidazolidin-2,4-dione] | – |
| 4.5 µM | 7 µM | – | Cc1ccc(S(=O)(=O)N2C(=O)CN(c3ccccc3)C2=O)cc1 [Compound 5, 1-phenyl-3-(4-toluenesulfonyl)-imidazolidin-2,4-dione] | – |
| 1.9 µM | 8.5 µM | 0.027 µM | C=CCOC(=O)c1ccc(S(=O)(=O)N2C(=O)CN(c3ccc(C)c(C)c3)C2=O)cc1 [Compound 65, 3-(4-allyloxycarbonylbenzenesulfonyl)-1-(3,4-dimethylphenyl)-imidazolidin-2,4-dione] | – |
| 4.8 µM | 39 µM | – | O=C1CN(c2ccc(Oc3ccccc3)cc2)C(=O)N1S(=O)(=O)c1ccc(Cl)cc1 [Compound 30, 3-(4-chlorobenzenesulfonyl)-1-(4-phenoxyphenyl)-imidazolidin-2,4-dione] | – |
| – | – | – | CC(C)C[C@H](NC(=O)[C@@H](NC(=O)N[C@@H](Cc1ccccc1)C(=O)O)[C@@H]1CCN=C(N)N1)C(=O)N[C@H](C=O)Cc1ccccc1 [chymostatin] | inhibition of the enzymatic activity of chymase, in words (chymase): inhibited by chymostatin; decomposition of peptide linkage in vivo [3]: easily decomposed in vivo |
| 0.96 µM | 3.5 µM | 3.7 µM | O=C1CN(c2ccccc2)C(=O)N1C(=O)c1ccccc1Cl [Compound 10, 3-(2-chlorobenzoyl)-1-phenyl-imidazolidin-2,4-dione] | – |

| SMILES | IC50 (cathepsin G; [4]) | IC50 [1, 5] | IC50 (Human cardiac chymase; [6]) | further results |
| --- | --- | --- | --- | --- |
| CC(C)(C)OC(=O)c1cccc(N2CC(=O)N(S(=O)(=O)c3ccc(Cl)cc3)C2=O)c1 [Compound 55] | 9.8 µM | 70 µM | 15 µM | – |
| O=C1CN(c2ccc(Cl)cc2)C(=O)N1S(=O)(=O)c1ccc(Cl)cc1 [Compound 1, 3-(4-chlorobenzenesulfonyl)-1-(4-chlorophenyl)imidazolidin-2,4-dione] | 1.5 µM | 0.5 µM | 0.3 µM | LD50 at 24 h (in vivo): ≥ 1000 mg/kg; selectivity ratio at 24 h (in vivo): ≥ 50 |
